PubChem BioAssay (NCI)
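Test compounds were applied to cells in 96-well plates for 48 hours at 5 doses. Here, GI50 denotes the concentration required for 50% inhibition of growth. TGI denotes the concentration required for complete inhibition of growth.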

Key:
Assay in all cases: NCI tumour cell line growth inhibition, 48 h
SK-MEL-5 melanoma = system: SK-MEL-5 melanoma
CCRF-CEM leukemia = system: CCRF-CEM leukemia
UACC-62 melanoma = system: UACC-62 melanoma
KM12 colon = system: KM12 colon
MDA-MB-231 breast = system: MDA-MB-231 breast
HL-60(TB) leukemia = system: HL-60(TB) leukemia
HCT-15 colon = system: HCT-15 colon
IGROV1 ovarian = system: IGROV1 ovarian
NCI-H460 lung = system: NCI-H460 lung
SR leukemia = system: SR leukemia
SW-620 colon = system: SW-620 colon
SF-268 CNS = system: SF-268 CNS
HOP-62 NSCLC = system: HOP-62 NSCLC
SNB-75 CNS = system: SNB-75 CNS
U251 CNS = system: U251 CNS
NCI/ADR-RES ovarian = system: NCI/ADR-RES ovarian
786-0 renal = system: 786-0 renal
EKVX NSCLC = system: EKVX NSCLC
OVCAR-4 ovarian = system: OVCAR-4 ovarian
SN12C renal = system: SN12C renal
SF-539 CNS = system: SF-539 CNS
MDA-MB-435 = system: MDA-MB-435
PC-3 prostate = system: PC-3 prostate
UACC-257 melanoma = system: UACC-257 melanoma
RXF 393 renal = system: RXF 393 renal
HOP-92 NSCLC = system: HOP-92 NSCLC
NCI-H23 lung = system: NCI-H23 lung
SK-OV-3 ovarian = system: SK-OV-3 ovarian
SK-MEL-28 melanoma = system: SK-MEL-28 melanoma
ACHN renal = system: ACHN renal
NCI-H522 lung = system: NCI-H522 lung
UO-31 renal = system: UO-31 renal
HCC-2998 colon = system: HCC-2998 colon
SNB-19 CNS = system: SNB-19 CNS
T-47D breast = system: T-47D breast
DU-145 prostate = system: DU-145 prostate
MALME-3M melanoma = system: MALME-3M melanoma
A549 NSCLC = system: A549 NSCLC
COLO 205 colon = system: COLO 205 colon
MOLT-4 leukemia = system: MOLT-4 leukemia
OVCAR-5 ovarian = system: OVCAR-5 ovarian
RPMI-8226 leukemia = system: RPMI-8226 leukemia
HCT-116 colon = system: HCT-116 colon
SF-295 CNS = system: SF-295 CNS
OVCAR-3 ovarian = system: OVCAR-3 ovarian
HT29 colon = system: HT29 colon
LOX IMVI melanoma = system: LOX IMVI melanoma
K-562 leukemia = system: K-562 leukemia
MCF7 breast = system: MCF7 breast
OVCAR-8 ovarian = system: OVCAR-8 ovarian
NCI-H226 lung = system: NCI-H226 lung
TK-10 renal = system: TK-10 renal
BT-549 breast = system: BT-549 breast
M14 melanoma = system: M14 melanoma
A498 renal = system: A498 renal
HS 578T breast = system: HS 578T breast

For `CC/C(=C(\c1ccc(Cl)cc1)c1ccc(OCCN2CCCCC2)cc1)c1ccc(O)cc1`, the GI50 (SK-MEL-5 melanoma) was 1680 nM, the TGI (SK-MEL-5 melanoma) was 3040 nM and the GI50 (CCRF-CEM leukemia) was 1910 nM. The TGI (CCRF-CEM leukemia) was 4930 nM, the GI50 (UACC-62 melanoma) was 1710 nM and the TGI (UACC-62 melanoma) was 3250 nM. It also gave a GI50 (KM12 colon) of 1900 nM, a TGI (KM12 colon) of 3740 nM and a GI50 (MDA-MB-231 breast) of 1810 nM. It also gave a TGI (MDA-MB-231 breast) of 3290 nM, a GI50 (HL-60(TB) leukemia) of 1910 nM and a TGI (HL-60(TB) leukemia) of 4170 nM. It also gave a GI50 (HCT-15 colon) of 1610 nM, a TGI (HCT-15 colon) of 3150 nM and a GI50 (IGROV1 ovarian) of 1910 nM. It also gave a TGI (IGROV1 ovarian) of 3940 nM, a GI50 (NCI-H460 lung) of 1820 nM and a TGI (NCI-H460 lung) of 3370 nM. It also gave a GI50 (SR leukemia) of 1900 nM, a TGI (SR leukemia) of 4510 nM and a GI50 (SW-620 colon) of 1750 nM. For the same compound, the TGI (SW-620 colon) was 3420 nM, the GI50 (SF-268 CNS) was 1750 nM and the TGI (SF-268 CNS) was 3800 nM. It also gave a GI50 (HOP-62 NSCLC) of 1770 nM, a TGI (HOP-62 NSCLC) of 3480 nM and a GI50 (SNB-75 CNS) of 1490 nM. For the same compound, the TGI (SNB-75 CNS) was 3640 nM, the GI50 (U251 CNS) was 1600 nM and the TGI (U251 CNS) was 3160 nM. It also gave a GI50 (NCI/ADR-RES ovarian) of 1750 nM, a TGI (NCI/ADR-RES ovarian) of 3800 nM and a GI50 (786-0 renal) of 1810 nM. The TGI (786-0 renal) was 3430 nM, the GI50 (EKVX NSCLC) was 1910 nM and the TGI (EKVX NSCLC) was 4350 nM. It also gave a GI50 (OVCAR-4 ovarian) of 1970 nM, a TGI (OVCAR-4 ovarian) of 4350 nM and a GI50 (SN12C renal) of 1690 nM. The TGI (SN12C renal) was 3230 nM, the GI50 (SF-539 CNS) was 1700 nM and the TGI (SF-539 CNS) was 3110 nM. For the same compound, the GI50 (MDA-MB-435) was 1720 nM, the TGI (MDA-MB-435) was 3200 nM and the GI50 (PC-3 prostate) was 1660 nM. The TGI (PC-3 prostate) was 3360 nM, the GI50 (UACC-257 melanoma) was 1830 nM and the TGI (UACC-257 melanoma) was 3940 nM. For the same compound, the GI50 (RXF 393 renal) was 1450 nM, the TGI (RXF 393 renal) was 2920 nM and the GI50 (HOP-92 NSCLC) was 1500 nM. It also gave a TGI (HOP-92 NSCLC) of 3200 nM, a GI50 (NCI-H23 lung) of 1880 nM and a TGI (NCI-H23 lung) of 3840 nM. The GI50 (SK-OV-3 ovarian) was 2010 nM, the TGI (SK-OV-3 ovarian) was 4880 nM and the GI50 (SK-MEL-28 melanoma) was 1770 nM. For the same compound, the TGI (SK-MEL-28 melanoma) was 3330 nM, the GI50 (ACHN renal) was 1700 nM and the TGI (ACHN renal) was 3080 nM. It also gave a GI50 (NCI-H522 lung) of 2010 nM, a TGI (NCI-H522 lung) of 4440 nM and a GI50 (UO-31 renal) of 1370 nM. For the same compound, the TGI (UO-31 renal) was 2660 nM, the GI50 (HCC-2998 colon) was 1850 nM and the TGI (HCC-2998 colon) was 3460 nM. The GI50 (SNB-19 CNS) was 1900 nM, the TGI (SNB-19 CNS) was 3540 nM and the GI50 (T-47D breast) was 1220 nM. The TGI (T-47D breast) was 3830 nM, the GI50 (DU-145 prostate) was 1870 nM and the TGI (DU-145 prostate) was 3580 nM. The GI50 (MALME-3M melanoma) was 1750 nM, the TGI (MALME-3M melanoma) was 3330 nM and the GI50 (A549 NSCLC) was 1810 nM. It also gave a TGI (A549 NSCLC) of 3700 nM, a GI50 (COLO 205 colon) of 1820 nM and a TGI (COLO 205 colon) of 3860 nM. It also gave a GI50 (MOLT-4 leukemia) of 1760 nM, a TGI (MOLT-4 leukemia) of 4430 nM and a GI50 (OVCAR-5 ovarian) of 1860 nM. The TGI (OVCAR-5 ovarian) was 4040 nM, the GI50 (RPMI-8226 leukemia) was 1860 nM and the TGI (RPMI-8226 leukemia) was 4100 nM. The GI50 (HCT-116 colon) was 1980 nM, the TGI (HCT-116 colon) was 4260 nM and the GI50 (SF-295 CNS) was 1720 nM. For the same compound, the TGI (SF-295 CNS) was 3130 nM, the GI50 (OVCAR-3 ovarian) was 1910 nM and the TGI (OVCAR-3 ovarian) was 3630 nM. For the same compound, the GI50 (HT29 colon) was 2190 nM, the TGI (HT29 colon) was 5090 nM and the GI50 (LOX IMVI melanoma) was 1670 nM. The TGI (LOX IMVI melanoma) was 3030 nM, the GI50 (K-562 leukemia) was 1600 nM and the TGI (K-562 leukemia) was 4620 nM. The GI50 (MCF7 breast) was 62.2 nM, the TGI (MCF7 breast) was 2630 nM and the GI50 (OVCAR-8 ovarian) was 2110 nM. It also gave a TGI (OVCAR-8 ovarian) of 5200 nM, a GI50 (NCI-H226 lung) of 1850 nM and a TGI (NCI-H226 lung) of 4340 nM. It also gave a GI50 (TK-10 renal) of 1960 nM, a TGI (TK-10 renal) of 4580 nM and a GI50 (BT-549 breast) of 2060 nM. It also gave a TGI (BT-549 breast) of 4200 nM, a GI50 (M14 melanoma) of 1880 nM and a TGI (M14 melanoma) of 3770 nM. The GI50 (A498 renal) was 3310 nM, the TGI (A498 renal) was 16500 nM and the GI50 (HS 578T breast) was 1780 nM. For the same compound, the TGI (HS 578T breast) was 4510 nM.
